The text below walks through data of PMC4967898, “Peptides interfering with protein-protein interactions in the ethylene signaling pathway delay tomato fruit ripening” (Scientific Reports, 2016).

Series [1] deals with living plants. As to conditions: cited from earlier work.
In series [2] the test system is climacteric tomato fruits. Briefly: Real-time monitoring of ethylene production of tomato fruits (laser-based ethylene detector). The format is in vivo, tomato (Solanum pimpinellifolium). As to the method:
(§1) Aminoethoxyvinyl glycine (AVG) was purchased from Sigma-Aldrich, St Louis, MO (purity ~95%). SmartFresh^SM (AgroFresh, Spring House, PA) was used as sugar-based powder formulation of 1-MCP. Concentration of 1-MCP was calculated according to the percentage of active ingredient (0.14%) and release from the SmartFresh^SM powder. For comparison concentration of all inhibitors are expressed in terms of molarity. For treatment of tomato fruits with NOP-1, AVG and MCP, inhibitors were dissolved in the FRET buffer described in the previous section to a final concentration of 200 μM. Green tomato fruits (Solanum pimpinellifolium) from the same estimated developmental stage were harvested from the panicle and water-cleaned. 300 μL of the inhibitor solution was applied onto the tomato surface with a brush and the fruits were air-dried for 30 min. As an alternative application, tomato fruits were plunged into 2 mL of the inhibitor solution and incubated for 30 min in this solution or 200 μL of the peptide-containing solution were carefully injected into the tomato tissue by a hypodermic syringe. Three individual tomato fruits were treated for the different applications of the peptide in order to document the ripening process. After inhibitor-treatment tomato fruits were transferred to a vial closed with aluminum foil and stored in the dark at room temperature. Maturation process was documented every second day for at least 20 days. For measurement of ethylene production, green tomato fruits were treated as described above.
Real-time monitoring of ethylene production
Ethylene production was continuously monitored over 19 days with a laser-based ethylene detector (ETD-300; Sensor Sense BV; Nijmegen, Netherlands). A detailed description of the system has been given elsewhere. Briefly, the detector consists of a laser emitting radiation in the 10 micrometers infrared wavelength region and a photoacoustic cell, in which ethylene is detected due to its strong fingerprint-like absorption pattern in this region. Inside the photoacoustic cell ethylene can absorb the laser radiation and converts it into kinetic energy by energy exchange processes, resulting in local heating of the sample. By switching on and off the light, rapid heating/cooling can occur, giving rise to a periodical pressure change, i.e. sound wave. The amplitude of these waves is directly proportional to the concentration of ethylene in the photoacoustic cell and can be detected very accurately with sensitive miniature microphones.
Six tomato fruits for each treatment, including an untreated group (buffer control, CT) were placed into glass cuvettes (150 ml volume) and connected to a gas flow through system (VC-6, Sensor Sense BV; Nijmegen, Netherlands) under a continuous flow routine as described in Ref. [58]. The […] ensured that the samples were continuously flushed with air at a constant flow of 2 l/h and allowed automated sampling of ethylene from the headspace of six cuvettes. Each cuvette was alternatively connected to the ETD-300 and ethylene emitted in the headspace was measured for 12 min. […] The ethylene production was related to the emission rate by multiplying the measured value with the flow rate (expressed in nanoliters per hour, nl/h) and further normalized with the fresh weight (expressed in grams, gFW); the end result being nanoliters per hour per gram of fresh weight, nl/h∙gFW.

Series [3] relates to green, immature tomato fruits. Briefly: Tomato fruit ripening after inhibitor treatment. The class given is in vivo, tomato (Solanum pimpinellifolium).
Source text: To further investigate the potential of NOP-1 for agricultural applications, we tested the effect of the NOP-1 peptide on tomato fruit ripening in comparison to other known inhibitors of ethylene responses. To this end we tested […] (MCP) and aminoethoxyvinylglycine (AVG). MCP is a known inhibitor of ethylene signaling blocking ethylene binding at the receptor proteins, whereas AVG blocks ethylene production in the plant by competitive inhibition of ACC synthases. To monitor inhibition of the fruit ripening process, we treated green, immature tomato fruits with 200 μM NOP-1, MCP or AVG, respectively and documented the fruit ripening process for 20 days. Figure 3 compares the effect of the different inhibitor treatments on tomato fruits to controls lacking the inhibitory treatment that contain either buffer alone or a random sequence control peptide (ROP-1). […] The bioassays underline the high inhibitory potential of NOP-1 on the ripening process compared to the well-known and efficient inhibitors of ethylene responses.
Inhibitor-treatment of tomato fruits
as §1

Series [4] in a line: Fluorescence of the dyes on their own (FRET control). To be noted: 100 μM peptide; free dyes. The text has this:
For this purpose, we made use of a fluorescence resonance energy transfer (FRET)-based in vitro assay, originally established for the respective Arabidopsis signaling proteins. Recombinant ethylene proteins LeETR1 and LeEIN2^462–1316 were labeled with fluorescent Alexa dyes[36] as described in the Methods section. LeETR1 was labeled with Alexa Fluor 488, while LeEIN2^462–1316 was labeled with Alexa Fluor 568. As the emission spectrum of the donor fluorophore partially overlaps with the excitation spectrum of the acceptor fluorophore, the dyes form a FRET pair and energy transfer from the donor to the acceptor fluorophore is possible when both probes get in close proximity. […] Formation of the complex is monitored by FRET from the donor molecule Alexa Fluor 488 to the acceptor molecule Alexa Fluor 568. Processes or molecules that prevent complex formation result in a reduced FRET from the donor to the acceptor, which is detected as reduced acceptor fluorescence at the emission maximum.
(b) Calculation of IC50 value for NOP-1. Data were obtained in the FRET-assay in presence of increasing concentrations of NOP-1 peptide. […] (c) Determination of Kd value of NOP-1 binding to LeETR1 based on MST is illustrated. MST-signal is plotted against the NOP-1 concentration. […] All data (a,b,c) represent the mean +/− standard deviation.

Series [5] concerns Arabidopsis EIN2-ETR1. To be noted: proteins from Arabidopsis, cited from earlier work. The text has this:
Studies on the related tomato proteins in this work emphasize that NOP-1 follows the same inhibitory mechanism also in other plants.

pIC50: −log10 of the molar value. Entries after “also recorded” stand apart in the source; their conditions may differ.

Broadly, the pIC50 is −log10 of the IC50, conventionally taken in molar units. On to `CC(C)C[C@H](NC(=O)[C@H](CCCNC(=N)N)NC(=O)[C@H](CCCNC(=N)N)NC(=O)[C@H](CCCCN)NC(=O)[C@H](Cc1ccc(O)cc1)NC(=O)[C@H](CCCNC(=N)N)NC(=O)[C@H](CCCCN)NC(=O)[C@@H](N)CC(C)C)C(N)=O` [NOP-1, LKRYKRRL-NH2], for which, in series [1], the “inhibition of ethylene responses in living plants” value is “potent inhibitor of ethylene responses in living plants”. For the same molecule, the “time of ethylene production peak, injected or incubated fruits” value in series [2] (200 μM NOP-1, injected or incubated) was 6 to 8 days. Moreover, the “initial ethylene burst in injected fruits” value in series [2] (200 μM NOP-1, injected, attributed to wounding) was “ethylene burst detected in the injected fruits; also recorded: initial burst in ethylene production within the first hours”. Moreover, the “time of ethylene production peak, surface-treated fruits” value in series [2] (200 μM NOP-1, surface-treated, same time as control fruits) is about 12 days. Also, in series [2] (200 μM NOP-1, surface treatment, injection, incubation, versus untreated fruits and buffer control, six fruits per treatment, 21 °C, dark), the “ethylene production compared with controls (in words)” value is “do not significantly differ from controls; also recorded: No reduction in ethylene production is evident; also recorded: modest increase rather than an inhibition of ethylene production”. For the same molecule, in series [2] (fruits treated with 200 μM NOP-1, average of surface-application, incubation and injection, injected fruits corrected for initial ethylene burst, six fruits per treatment, 21 °C, dark), the “Ethylene production over 18 days (total ethylene release, average of applications)” value was 616 +/- 46 nl/gFW. The “delay in fruit ripening (Fig. 3c)” value in series [3] (200 μM, surface-treated, incubated or injected, versus untreated fruits) is listed as “at least 5 days”. The “delay in maturation of tomato fruits” value in series [3] (200 μM, all tested inhibitors and all applications of NOP-1 (injection, incubation, surface application), documented for 20 days, three fruits per application) is 10 to 15 days. In series [3] (200 μM, surface application compared with incubation and injection), the “delay in maturation by application form (in words)” value is recorded as “Delay in maturation process is most evident for fruit surface application”. Besides, the “effect on tomato fruit ripening (in words)” value in series [3] (compared with buffer or untreated control, inhibitors at 200 μM) was “delays ripening similar to known inhibitors of ethylene perception (MCP) and ethylene biosynthesis (AVG)”. The “penetration of fruit surface / uptake (in words)” value in series [3] (inferred from ripening delay after surface application, 200 μM) is “can easily penetrate the surface tissue of the tomatoes and is taken up by the fruits; also recorded: seems to penetrate the exocarp and is taken up by the fruits”. In addition, the “delay in ripening by injection (in words)” value in series [3] (injection into the fruits, initial experiments) is listed as “less pronounced delay in ripening”. In series [3] (surface-treated, 200 μM, versus untreated control fruits), the “delay in fruit ripening (Fig. 3a)” value is “at least 15 days”. Further, the “effect on fluorescence of the dyes on their own” value in series [4] is recorded as “not affected by the peptides; also recorded: Neither of both peptides affected fluorescence of the free, unlabeled dyes”. In addition, the “effect on EIN2-ETR1 interaction in Arabidopsis” value in series [5] was “reduced or abolished EIN2-ETR1 interaction; also recorded: able to disrupt interaction of EIN2 and ETR1”. Moreover, the pIC50 in series [5] (read-out: IC50 for inhibition of EIN2-ETR1 interaction in Arabidopsis) is 4.03.
